Tests used:
NCI-H3122 [1] = assay: cells; details: Homo sapiens, NCI-H3122, 72 h
Description: Antiproliferative activity against human NCI-H3122 cells expressing EML4-ALK fusion assessed as cell growth inhibition incubated for 72 hrs by CellTiter-Glo assay

NCI-H3122 [2] = assay: Antiproliferative activity against human NCI-H3122 cells transfected with siRNF126 assessed as cell growth inhibition measured after 72 hrs by CellTiter-Glo assay; type: functional
[3] = target: T1, Proto-oncogene tyrosine-protein kinase ROS (Homo sapiens, UniProt P08922); assay: Inhibition of ROS (unknown origin) by Eurofins kinase profiler method
[4] = target: Epidermal growth factor receptor (Homo sapiens, UniProt P00533, L858R); assay: Inhibition of EGFR L858R (unknown origin) by Eurofins kinase profiler method
[5] = target: T1, Proto-oncogene tyrosine-protein kinase ROS; assay: Inhibition of ROS (unknown origin) at 1 uM by Eurofins kinase profiler method relative to control
[6] = target: Insulin receptor (Homo sapiens) (UniProt P06213); assay: Inhibition of IR (unknown origin) at 1 uM by Eurofins kinase profiler method relative to control
[7] = target: Insulin-like growth factor 1 receptor (Homo sapiens) (UniProt P08069); assay: Inhibition of IGF-1R (unknown origin) at 1 uM by Eurofins kinase profiler method relative to control
[8] = test system: Epidermal growth factor receptor (Homo sapiens), P00533 [L858R]; assay: Inhibition of EGFR L858R (unknown origin) at 1 uM by Eurofins kinase profiler method relative to control
NCI-H3122 [9] = assay: Induction of EML4-ALK degradation in human NCI-H3122 cells assessed as reduction in ALK level by measuring fold change at 100 nM measured after 24 hrs by Western blot analysis (reference value: […]); type: cell-based

T1 sequence (P08922 whole entry): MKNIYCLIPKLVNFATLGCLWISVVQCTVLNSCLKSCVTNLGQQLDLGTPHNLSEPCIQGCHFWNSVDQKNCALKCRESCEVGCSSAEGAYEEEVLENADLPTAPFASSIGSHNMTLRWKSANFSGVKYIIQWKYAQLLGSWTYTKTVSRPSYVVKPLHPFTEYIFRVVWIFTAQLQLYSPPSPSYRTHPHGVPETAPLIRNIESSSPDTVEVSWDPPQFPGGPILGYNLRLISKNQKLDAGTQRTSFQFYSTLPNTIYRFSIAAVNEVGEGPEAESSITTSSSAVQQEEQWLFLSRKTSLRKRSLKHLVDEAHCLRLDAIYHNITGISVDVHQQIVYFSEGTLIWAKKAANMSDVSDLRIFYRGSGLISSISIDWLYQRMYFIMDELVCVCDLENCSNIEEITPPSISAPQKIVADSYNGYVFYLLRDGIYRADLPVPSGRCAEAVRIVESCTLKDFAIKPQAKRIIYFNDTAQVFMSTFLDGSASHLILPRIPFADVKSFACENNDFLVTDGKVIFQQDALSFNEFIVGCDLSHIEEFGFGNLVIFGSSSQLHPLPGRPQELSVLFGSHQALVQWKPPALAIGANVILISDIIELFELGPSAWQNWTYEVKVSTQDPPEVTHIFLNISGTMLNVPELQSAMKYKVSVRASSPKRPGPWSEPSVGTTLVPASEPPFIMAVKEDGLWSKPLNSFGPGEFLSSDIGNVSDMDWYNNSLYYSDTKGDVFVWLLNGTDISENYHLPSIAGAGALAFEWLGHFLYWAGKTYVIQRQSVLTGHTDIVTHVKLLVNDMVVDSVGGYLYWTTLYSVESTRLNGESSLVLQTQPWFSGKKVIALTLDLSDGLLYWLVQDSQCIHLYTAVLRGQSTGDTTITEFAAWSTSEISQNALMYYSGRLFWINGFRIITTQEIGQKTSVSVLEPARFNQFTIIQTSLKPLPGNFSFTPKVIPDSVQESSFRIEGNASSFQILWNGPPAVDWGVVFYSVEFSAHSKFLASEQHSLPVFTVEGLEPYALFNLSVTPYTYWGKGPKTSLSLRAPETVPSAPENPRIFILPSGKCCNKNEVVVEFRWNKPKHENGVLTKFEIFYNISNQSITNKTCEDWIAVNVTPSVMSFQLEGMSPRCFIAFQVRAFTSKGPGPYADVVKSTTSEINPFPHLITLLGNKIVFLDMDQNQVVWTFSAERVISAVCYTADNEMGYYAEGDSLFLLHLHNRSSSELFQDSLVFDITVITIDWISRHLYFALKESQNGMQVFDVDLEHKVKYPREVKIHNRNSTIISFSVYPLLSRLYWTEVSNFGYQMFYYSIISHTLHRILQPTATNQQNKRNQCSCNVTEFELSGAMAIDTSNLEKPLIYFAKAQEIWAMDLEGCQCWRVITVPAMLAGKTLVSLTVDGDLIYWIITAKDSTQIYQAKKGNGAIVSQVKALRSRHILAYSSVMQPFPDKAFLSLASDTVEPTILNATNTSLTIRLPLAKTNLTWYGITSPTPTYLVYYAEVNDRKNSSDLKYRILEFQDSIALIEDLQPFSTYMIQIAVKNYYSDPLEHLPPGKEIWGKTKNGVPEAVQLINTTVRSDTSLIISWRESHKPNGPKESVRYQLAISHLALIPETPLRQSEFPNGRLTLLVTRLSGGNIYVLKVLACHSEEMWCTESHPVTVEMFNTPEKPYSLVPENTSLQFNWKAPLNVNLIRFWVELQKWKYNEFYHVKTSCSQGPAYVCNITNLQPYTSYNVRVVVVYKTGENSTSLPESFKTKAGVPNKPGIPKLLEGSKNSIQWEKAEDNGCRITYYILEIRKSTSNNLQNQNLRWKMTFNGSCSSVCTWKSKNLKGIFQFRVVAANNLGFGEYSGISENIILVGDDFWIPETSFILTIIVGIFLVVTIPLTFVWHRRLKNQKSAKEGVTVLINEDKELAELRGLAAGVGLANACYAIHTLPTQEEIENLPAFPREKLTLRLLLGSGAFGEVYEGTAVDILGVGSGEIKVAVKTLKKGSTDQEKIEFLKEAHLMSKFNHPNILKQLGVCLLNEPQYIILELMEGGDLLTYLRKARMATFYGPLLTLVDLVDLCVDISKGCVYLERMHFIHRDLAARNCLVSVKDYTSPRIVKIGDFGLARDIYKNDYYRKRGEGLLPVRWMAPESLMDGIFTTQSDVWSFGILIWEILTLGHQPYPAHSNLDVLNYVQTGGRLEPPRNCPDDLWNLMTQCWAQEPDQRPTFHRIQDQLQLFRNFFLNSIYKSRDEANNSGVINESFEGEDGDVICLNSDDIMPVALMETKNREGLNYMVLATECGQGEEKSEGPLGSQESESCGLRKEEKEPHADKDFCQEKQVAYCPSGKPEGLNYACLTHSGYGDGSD
Sequence of Insulin-like growth factor 1 receptor (Homo sapiens) (P08069 31-736 limits assumed): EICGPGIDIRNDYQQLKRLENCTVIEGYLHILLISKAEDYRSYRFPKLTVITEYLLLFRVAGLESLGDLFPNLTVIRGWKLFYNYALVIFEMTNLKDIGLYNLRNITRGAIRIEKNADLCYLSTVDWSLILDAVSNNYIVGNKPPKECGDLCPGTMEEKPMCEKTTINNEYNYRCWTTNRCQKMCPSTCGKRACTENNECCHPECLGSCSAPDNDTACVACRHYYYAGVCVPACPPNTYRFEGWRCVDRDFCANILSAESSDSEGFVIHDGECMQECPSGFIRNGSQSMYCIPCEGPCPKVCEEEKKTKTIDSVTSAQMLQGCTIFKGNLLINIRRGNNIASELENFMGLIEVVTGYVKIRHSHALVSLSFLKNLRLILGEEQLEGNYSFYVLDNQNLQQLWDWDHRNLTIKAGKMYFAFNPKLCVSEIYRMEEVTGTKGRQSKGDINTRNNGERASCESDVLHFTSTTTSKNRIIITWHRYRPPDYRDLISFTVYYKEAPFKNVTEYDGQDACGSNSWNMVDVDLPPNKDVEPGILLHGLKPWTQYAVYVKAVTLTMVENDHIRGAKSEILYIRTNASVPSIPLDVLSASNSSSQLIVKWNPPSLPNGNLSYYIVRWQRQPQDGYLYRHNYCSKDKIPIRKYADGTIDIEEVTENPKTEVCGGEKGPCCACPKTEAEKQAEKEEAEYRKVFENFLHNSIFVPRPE
Sequence of Insulin-like growth factor 1 receptor (Homo sapiens) (P08069 741-1367 limits assumed): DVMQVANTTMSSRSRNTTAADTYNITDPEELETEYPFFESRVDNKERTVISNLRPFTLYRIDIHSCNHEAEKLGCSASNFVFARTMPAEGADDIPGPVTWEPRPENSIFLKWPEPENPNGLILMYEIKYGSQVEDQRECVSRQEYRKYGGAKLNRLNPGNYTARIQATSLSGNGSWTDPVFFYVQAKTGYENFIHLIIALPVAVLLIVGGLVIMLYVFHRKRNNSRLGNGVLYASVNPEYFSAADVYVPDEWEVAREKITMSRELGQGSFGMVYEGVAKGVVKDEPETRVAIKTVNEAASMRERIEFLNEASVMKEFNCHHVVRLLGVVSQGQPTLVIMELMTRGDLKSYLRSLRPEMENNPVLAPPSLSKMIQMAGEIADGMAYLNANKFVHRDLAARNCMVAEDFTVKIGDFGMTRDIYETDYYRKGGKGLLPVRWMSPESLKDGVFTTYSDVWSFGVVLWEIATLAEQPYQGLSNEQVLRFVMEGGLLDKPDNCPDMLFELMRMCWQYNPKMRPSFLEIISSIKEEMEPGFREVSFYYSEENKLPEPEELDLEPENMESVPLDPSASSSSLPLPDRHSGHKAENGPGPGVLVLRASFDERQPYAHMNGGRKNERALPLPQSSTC
Sequence of Epidermal growth factor receptor (Homo sapiens), P00533 [L858R] (P00533 whole entry L858R): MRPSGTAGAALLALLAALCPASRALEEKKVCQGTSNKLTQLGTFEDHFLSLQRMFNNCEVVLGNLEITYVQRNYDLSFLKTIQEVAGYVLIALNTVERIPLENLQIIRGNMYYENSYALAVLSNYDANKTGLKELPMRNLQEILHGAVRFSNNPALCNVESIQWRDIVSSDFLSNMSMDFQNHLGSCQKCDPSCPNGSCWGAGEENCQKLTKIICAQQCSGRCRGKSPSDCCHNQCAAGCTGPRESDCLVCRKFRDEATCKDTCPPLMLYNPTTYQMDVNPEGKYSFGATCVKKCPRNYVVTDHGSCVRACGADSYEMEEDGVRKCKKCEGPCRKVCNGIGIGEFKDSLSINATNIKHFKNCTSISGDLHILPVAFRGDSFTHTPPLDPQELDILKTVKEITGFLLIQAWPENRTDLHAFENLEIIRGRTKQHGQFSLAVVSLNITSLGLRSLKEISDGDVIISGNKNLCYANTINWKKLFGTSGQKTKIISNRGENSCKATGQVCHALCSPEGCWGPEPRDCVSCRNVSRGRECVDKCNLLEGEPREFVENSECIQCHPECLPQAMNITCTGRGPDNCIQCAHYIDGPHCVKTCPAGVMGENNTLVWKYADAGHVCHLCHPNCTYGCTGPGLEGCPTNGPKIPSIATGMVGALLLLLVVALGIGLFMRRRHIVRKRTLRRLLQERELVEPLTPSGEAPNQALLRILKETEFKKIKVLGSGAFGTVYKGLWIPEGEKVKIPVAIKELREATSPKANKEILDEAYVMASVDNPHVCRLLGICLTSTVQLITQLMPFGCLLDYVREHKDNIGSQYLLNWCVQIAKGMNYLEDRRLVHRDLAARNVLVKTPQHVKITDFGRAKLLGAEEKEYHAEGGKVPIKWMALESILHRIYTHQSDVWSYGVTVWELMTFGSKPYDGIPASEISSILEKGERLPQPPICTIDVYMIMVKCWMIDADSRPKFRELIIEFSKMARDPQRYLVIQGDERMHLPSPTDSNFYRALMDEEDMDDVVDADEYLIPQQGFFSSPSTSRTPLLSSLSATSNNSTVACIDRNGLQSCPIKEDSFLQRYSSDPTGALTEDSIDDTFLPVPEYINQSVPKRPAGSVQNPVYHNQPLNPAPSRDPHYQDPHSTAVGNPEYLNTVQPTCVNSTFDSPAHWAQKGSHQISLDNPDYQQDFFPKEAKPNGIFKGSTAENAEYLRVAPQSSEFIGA

GI50 (NCI-H3122 [1]) | SMILES | other results
23 nM | Cc1cc(Nc2ncc(Cl)c(Nc3ccccc3S(=O)(=O)C(C)C)n2)c(OC(C)C)cc1C1CCNCC1 [CERITINIB] | –
747 nM | COc1ccc(C(=O)CCC(=O)N2CCC(c3cc(OC(C)C)c(Nc4ncc(Cl)c(Nc5ccccc5S(=O)(=O)C(C)C)n4)cc3C)CC2)cc1 | –
66 nM | COc1ccc(C(=O)CCC(=O)N2CCN(C3CCN(c4ccc(Nc5ncc(Cl)c(Nc6ccccc6P(C)(C)=O)n5)c(OC)c4)CC3)CC2)cc1 | GI50 (NCI-H3122 [2]): 111 nM
88 nM | CCc1cc2c(cc1N1CCC(N3CCN(C(=O)/C=C/C(=O)c4ccc(OC)cc4)CC3)CC1)C(C)(C)c1[nH]c3cc(C#N)ccc3c1C2=O | –
2 nM | COc1ccc(C(=O)/C=C/C(=O)N2CCN(C3CCN(c4ccc(Nc5ncc(Cl)c(Nc6ccccc6P(C)(C)=O)n5)c(OC)c4)CC3)CC2)cc1 | IC50 [3]: 185 nM; IC50 [4]: 97.1 nM; inhibition [5]: 73%; inhibition [6]: 48%; inhibition [7]: 44%; inhibition [8]: 82%; GI50 (NCI-H3122 [2]): 2 nM
– | CC(C)C[C@H](NC(=O)[C@H](Cc1ccccc1)NC(=O)c1cnccn1)B(O)O | fold change (FC) (NCI-H3122 [9]): 1
23 nM | CCc1cc2c(cc1N1CCC(N3CCOCC3)CC1)C(C)(C)c1[nH]c3cc(C#N)ccc3c1C2=O [ALECTINIB] | –
1100 nM | COc1ccc(C(=O)CCC(=O)N2CCC(n3cc(-c4cnc(N)c(O[C@H](C)c5c(Cl)ccc(F)c5Cl)c4)cn3)CC2)cc1 | –
56 nM | COc1ccc(C(=O)/C=C/C(=O)N2CCC(n3cc(-c4cnc(N)c(O[C@H](C)c5c(Cl)ccc(F)c5Cl)c4)cn3)CC2)cc1 | –
35 nM | COc1cc(N2CCC(N3CCN(C)CC3)CC2)ccc1Nc1ncc(Cl)c(Nc2ccccc2P(C)(C)=O)n1 [BRIGATINIB] | GI50 (NCI-H3122 [2]): 43 nM
> 5000 nM | CCc1cc2c(cc1N1CCC(N3CCN(C(=O)CCC(=O)c4ccc(OC)cc4)CC3)CC1)C(C)(C)c1[nH]c3cc(C#N)ccc3c1C2=O | –
209 nM | COc1ccc(C(=O)/C=C/C(=O)N2CCC(c3cc(OC(C)C)c(Nc4ncc(Cl)c(Nc5ccccc5S(=O)(=O)C(C)C)n4)cc3C)CC2)cc1 | –
